In patent publication US6958355B2, “Materials and methods for the treatment of diabetes, hyperlipidemia, hypercholesterolemia, and atherosclerosis” (ARYx Therapeutics, Inc., priority 2000, dated 2005):

Tested on: NIDDM KK-A^y male mice
Assay: Activity on serum glucose and insulin levels in NIDDM KK-A^y male mice
Format: in vivo
Conditions: percent reduction relative to pre-treatment values, 10 mg/kg orally, twice a day, 5 consecutive days, blood sampled 90 minutes after the last dose
From the text: Representative compounds were chosen and evaluated for activity on serum glucose and insulin levels in non-insulin dependent diabetic mellitus (NIDDM) KK-A^y male mice. Post-treatment data for each group were transferred to a percentage of pretreatment values and unpaired Student's t test was used for comparison between vehicle and test substance treated groups. […] The results are presented in Table XXI and in FIGS. 19 and 20.
Activity in NIDDM KK-A^y male mice. Non-insulin dependent diabetic mellitus male mice, weighing 50+/−5 g (9-10 weeks of age) were used. […] The test compounds 105, 115, and 155, and the positive control compound troglitazone were suspended in a 1% carboxymethylcellulose preparation and were given orally at a dose of 10 mg/kg, twice a day, for 5 consecutive days. Blood sampling was performed before the first dose and then 90 minutes after the last dose. Serum glucose and insulin levels were measured.

Cc1c(C)c2c(c(C)c1O)CCC(C)(COc1ccc(CC3SC(=O)NC3=O)cc1)O2 (centres unmarked) [Troglitazone, troglitazone]
Serum Glucose (%): 35% | Serum Insulin (%): 15%
